In ChEMBL document CHEMBL3739402, “Chromanones: selective and reversible monoamine oxidase B inhibitors with nanomolar potency” (Medchemcomm, 2015):

Columns and labels:
[1] = target: T1, Amine oxidase [flavin-containing] A (Homo sapiens, UniProt P21397); assay: Inhibition of human MAO-A using p-tyramine as substrate assessed as production of H2O2 from p-tyramine at 100 uM incubated for 15 mins by Amplex Red MAO assay; conditions: 0.25 h
T1 sequence (P21397 whole entry): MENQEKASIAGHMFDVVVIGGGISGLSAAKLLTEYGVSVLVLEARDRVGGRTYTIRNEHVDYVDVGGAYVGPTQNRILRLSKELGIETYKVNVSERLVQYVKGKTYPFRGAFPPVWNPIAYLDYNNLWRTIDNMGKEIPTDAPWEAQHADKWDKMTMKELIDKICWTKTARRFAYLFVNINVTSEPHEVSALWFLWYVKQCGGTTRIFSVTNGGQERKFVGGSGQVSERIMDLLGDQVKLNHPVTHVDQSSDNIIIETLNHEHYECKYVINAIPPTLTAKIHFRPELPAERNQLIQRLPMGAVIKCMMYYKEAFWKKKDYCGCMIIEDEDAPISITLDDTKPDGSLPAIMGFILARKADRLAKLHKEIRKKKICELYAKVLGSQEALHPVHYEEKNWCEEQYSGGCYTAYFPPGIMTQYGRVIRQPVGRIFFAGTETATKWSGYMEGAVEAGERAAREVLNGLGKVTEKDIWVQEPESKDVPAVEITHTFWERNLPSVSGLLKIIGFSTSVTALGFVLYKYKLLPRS

[2] = target: T2, Amine oxidase [flavin-containing] B (Homo sapiens, UniProt P27338); assay: Inhibition of human MAO-B using p-tyramine as substrate assessed as production of H2O2 from p-tyramine incubated for 15 mins by Amplex Red MAO assay
T2 sequence (P27338 whole entry): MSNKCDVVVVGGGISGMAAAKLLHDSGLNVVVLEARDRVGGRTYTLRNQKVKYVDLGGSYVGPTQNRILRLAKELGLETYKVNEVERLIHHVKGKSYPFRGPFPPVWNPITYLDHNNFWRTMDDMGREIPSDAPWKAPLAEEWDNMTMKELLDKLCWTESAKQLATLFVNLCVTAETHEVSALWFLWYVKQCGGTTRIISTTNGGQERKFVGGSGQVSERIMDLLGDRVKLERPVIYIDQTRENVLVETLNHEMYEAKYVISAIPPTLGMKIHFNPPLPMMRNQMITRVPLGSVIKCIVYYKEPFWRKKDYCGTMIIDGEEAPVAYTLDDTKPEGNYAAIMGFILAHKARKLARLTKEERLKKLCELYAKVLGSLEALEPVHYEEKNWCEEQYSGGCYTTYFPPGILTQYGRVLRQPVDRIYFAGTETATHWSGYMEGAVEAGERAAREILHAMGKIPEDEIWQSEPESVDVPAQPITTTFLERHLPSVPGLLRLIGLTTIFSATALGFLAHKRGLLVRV

SH-SY5Y = assay: Neurotoxicity against human SH-SY5Y cells assessed as cell viability at 3 to 50 uM after 48 hrs by MTT assay; type: toxicity, cell-based
Homo sapiens = species: Homo sapiens; assay: Selectivity index, ratio of IC50 for human MAO-A to IC50 for human MA)-B by Amplex Red MAO assay
[3] = target: T1, Amine oxidase [flavin-containing] A; assay: Inhibition of human MAO-A using p-tyramine as substrate assessed as production of H2O2 from p-tyramine incubated for 15 mins by Amplex Red MAO assay
[4] = target: T2, Amine oxidase [flavin-containing] B; assay: Inhibition of human MAO-B preincubated at twice the IC50 for 15 mins
[5] = target: T2, Amine oxidase [flavin-containing] B; assay: Inhibition of human MAO-B preincubated at twice the IC50 for 60 mins
[6] = target: T2, Amine oxidase [flavin-containing] B; assay: Competitive inhibition of human MAO-B using 50 to 500 uM p-tyramine as substrate at 4.3 to 17.2 nM by Lineweaver-Burk plot analysis
[7] = target: T2, Amine oxidase [flavin-containing] B; assay: Reversible inhibition of human MAO-B preincubated at twice the IC50 for 0 to 60 mins
[8] = target: T2, Amine oxidase [flavin-containing] B; assay: Inhibition of human MAO-B preincubated at twice the IC50 for 0 mins
[9] = target: T2, Amine oxidase [flavin-containing] B; assay: Inhibition of human MAO-B preincubated at twice the IC50 for 30 mins
[10] = target: T2, Amine oxidase [flavin-containing] B; assay: Time dependent inhibition of human MAO-B preincubated at twice the IC50 for 0 to 60 mins

| Compound | inhibition at 100 µM [1] [%] | IC50 [2] [nM] | other results |
| --- | --- | --- | --- |
| O=C1CCOc2cc(OCc3ccc(Cl)cc3)ccc21 | 37 | – | – |
| CC1(C)CC(=O)c2ccc(OCc3cccc(F)c3)cc2O1 | 18 | 65.5 | – |
| O=C1CCOc2cc(OCc3ccccc3F)ccc21 | 35 | 58.8 | – |
| O=C1COc2cc(OCc3ccccc3)ccc21 | – | 15200 | IC50 [3]: 38200 nM; Ratio IC50 (Homo sapiens): 2.5 |
| O=C1CCOc2cc(O)ccc21 | – | 78900 | IC50 [3]: 71400 nM; Ratio IC50 (Homo sapiens): 0.9 |
| N#Cc1ccc(COc2ccc3c(c2)OCCC3=O)cc1 | 27 | 47.3 | – |
| O=C1CCOc2cc(OCc3cccc(Br)c3)ccc21 | 28 | 30.3 | – |
| CC1(C)CC(=O)c2ccc(OCc3ccc(C#N)cc3)cc2O1 | 23 | 69.5 | – |
| Cc1ccc(COc2ccc3c(c2)OC(C)(C)CC3=O)cc1 | 25 | 113 | – |
| O=C1COc2cc(OCCCc3ccccc3)ccc21 | – | 20500 | IC50 [3]: 39300 nM; Ratio IC50 (Homo sapiens): 1.9 |
| CC1(C)CC(=O)c2ccc(OCc3ccc(Br)cc3)cc2O1 | 21 | 45.4 | – |
| O=C1CCOc2cc(OCCCc3ccccc3)ccc21 | 65 | 21400 | – |

Second part, led by results:

| inhibition at 100 µM [1] [%] | IC50 [2] [nM] | Compound | other results |
| --- | --- | --- | --- |
| 19 | – | Cc1cccc(COc2ccc3c(c2)OCCC3=O)c1 | – |
| 35 | 35.3 | O=C1CCOc2cc(OCc3cccc(Cl)c3)ccc21 | – |
| 28 | 68.8 | CC1(C)CC(=O)c2ccc(OCc3ccccc3F)cc2O1 | – |
| 25 | – | CC1(C)CC(=O)c2ccc(OCc3ccc(F)cc3)cc2O1 | Activity (SH-SY5Y): Non-toxic |
| 26 | 52.6 | O=C1CCOc2cc(OCc3cccc(F)c3)ccc21 | Ratio IC50 (Homo sapiens): > 1900 |
| 25 | 97.5 | CC1(C)CC(=O)c2ccc(OCc3ccccc3)cc2O1 | – |
| 28 | – | CC1(C)CC(=O)c2ccc(OCc3ccc(Cl)cc3)cc2O1 | – |
| 18 | 57.4 | O=C1CCOc2cc(OCc3ccccc3)ccc21 | – |
| 18 | 98.3 | Cc1cccc(COc2ccc3c(c2)OC(C)(C)CC3=O)c1 | – |
| 16 | 52.2 | CC1(C)CC(=O)c2ccc(OCc3cccc(Br)c3)cc2O1 | – |
| 31 | 55.4 | CC1(C)CC(=O)c2ccc(OCc3cccc(Cl)c3)cc2O1 | – |
| 43 | – | O=C1CCOc2cc(OCc3ccc(F)cc3)ccc21 | inhibition (INH) [4]: 44.5%; inhibition (INH) [5]: 49.6%; inhibition (INH) [6]: Active; inhibition (INH) [7]: Active; inhibition (INH) [8]: 42.4%; inhibition (INH) [9]: 45.5%; TDI [10]: Not Active; Activity (SH-SY5Y): Non-toxic |
| 58 | 251 | O=C1CCOc2cc(OCCc3ccccc3)ccc21 | – |
| 19 | 21.6 | O=C1CCOc2cc(OCc3ccc(Br)cc3)ccc21 | – |
| 26 | 91.3 | Cc1ccc(COc2ccc3c(c2)OCCC3=O)cc1 | – |
| – | 2130 | O=C1COc2cc(OCCc3ccccc3)ccc21 | IC50 [3]: 46400 nM; Ratio IC50 (Homo sapiens): 21.8 |
